From patent publication US12723023B2, “Ionizable cationic lipids for RNA delivery” (Arcturus Therapeutics, Inc., priority 2021, dated 2026) come the findings set out here.

Data set [1] in a line: In vivo biodegradability assay (lipid concentration in mouse liver by LC-MS). Conditions: BLOQ: below level of quantification; for In vivo degradability (ng tissue) at 48 h 0.1 mpk: Table 1, 0.1 mpk; for In vivo degradability (ng/tissue) at 48 h 0.1 mpk: Table 2, 0.1 mpk. Set-up: species or system mice.
Protocol: In vivo biodegradability assay was performed to assess the biodegradability of lipids in the LNP. Briefly, mice were injected with either 0.1 or 0.03 mg/Kg dose and after 24 or 48 hours mice livers were collected. To measure the concentration of lipids in the mouse liver, liver samples were homogenized in appropriate buffer in 1-10 dilution and mixed with the same amount of stabilized plasma. The samples were then mixed with organic solvents spiked with internal standard to precipitate proteins. After centrifugation, supernatant was diluted further with organic solvent before sample analysis by LC-MS. In LC-MS analysis, positive electrospray ionization was used, and multiple reaction monitoring (MRM) parameters were set up to specifically target the lipid analyte and internal standard. Calibration standards were prepared in stabilized plasma and mixed with same amount of homogenization buffer before protein precipitation. Quality control samples with known amounts of lipid was prepared in blank liver homogenate to monitor the precision and accuracy of the assay.
The nature of another data set: Mouse plasma stability. To be noted: 1 μM lipid. The data set is classed as in vitro ADME, CD-1 mouse. The method, then:
Lipid stock solution was prepared by dissolution of the lipid in isopropanol at the concentration of 5 mg/mL. A requisite volume of the lipid-isopropanol solution was then diluted to 100 μM concentration at a total volume of 1.0 mL with in 50:50 (v/v) ethanol/water. Ten microliters of this 100 μM solution was spiked into 1.0 mL of mouse plasma (BioIVT, Cat. No.: MSE00PLNHUNN, CD-1 mouse, anticoagulant: sodium heparin, not filtered) that was pre-warmed to 37° C. and was stirred at 50 rpm with a magnetic stir bar. The starting concentration of lipids in plasma was thus 1 μM. At time points 0, 15, 30, 45, 60 and 120 min, 0.1 mL of the plasma was withdrawn from the reaction mixture and the protein was precipitated by adding 0.9 mL of ice-cold 4:1 (v/v) acetonitrile/methanol with 1 μg/mL of a selected internal standard lipid added. After filtration through a 0.45 micron 96-well filtering plate, the filtrates were analyzed by LC-MS (Thermo Fisher's Vanquish UHPLC-LTQ XL linear ion trap Mass Spectrometer); Waters XBridge BEH Shield RP18 2.5 micron (2.1×100 mm) column with its matching guard column. Mobile phase A was 0.1% formic acid in water, and mobile phase B was 0.1% formic acid in 1:1 (v/v) acetonitrile/methanol. Flow rate was 0.5 ml/min. Elution gradient was: Time 0-1 min: 10% B; 1-6 min: 10%-95% B; 6-8.5 min: 95% B; 8.5-9 min: 95%-10% B; 9-10 min: 10% B. Mass spectrometry was in positive scanning mode from 600-1100 m/z. The peak of the molecular ion of the lipids was integrated in the extracted ion chromatography (XIC) using Xcalibur software (Thermo Fisher). The relative peak area compared to T=0, after normalization by the peak area of the internal standard, was used as the percentage of the lipid remaining at each time point. T1/2 values were calculated using the first-order decay model.

The structures appear in SMILES notation.

As to `CCCCCCCCC(=O)OCC(COC(=O)CCCCCCCC)OC(=O)CCCN(CCCC(=O)OC(COC(=O)CCCCCCCC)COC(=O)CCCCCCCC)C(=O)SCCCN(C)C` [LIPID 1, ((4,4′-((((3-(Dimethylamino)propyl)thio)carbonyl)azanediyl)bis(butanoyl))bis(oxy))bis(propane-2,1,3-triyl) tetranonanoate], the “In vivo degradability (ng/tissue) at 48 h 0.03 mpk” value in data set [1] (Table 1, 0.03 mpk) is “BLOQ”; in data set [1] (Table 2, 0.03 mpk) it was “BLOQ”. Besides, the “In vivo degradability (ng tissue) at 48 h 0.1 mpk” value (from here on “In vivo degradability (ng tissue)”) in data set [1] is “BLOQ”. For the same compound, the “In vivo degradability (ng/tissue) at 48 h 0.1 mpk” value in data set [1] is recorded as “BLOQ”. Further, the “Plasma half life % remaining after 2 h” value in “Mouse plasma stability” (Table 1, 37° C.) stood at 14%; in “Mouse plasma stability” (Table 2, 37° C.) it was 14%.
Turning to `CCCCCCCCC(=O)OCC(COC(=O)CCCCCCCC)OC(=O)CCCC(CCCC(=O)OC(COC(=O)CCCCCCCC)COC(=O)CCCCCCCC)OC(=O)CCCN(C)C.Cl` [LIPID 3, bis(1,3-bis(Nonanoyloxy)propan-2-yl) 5-((4-(dimethylamino)butanoyl)oxy)nonanedioate HCl Salt], the “In vivo degradability (ng/tissue) at 48 h 0.03 mpk” value in data set [1] (Table 1, 0.03 mpk) is listed as “BLOQ”; in data set [1] (Table 2, 0.03 mpk) it was “BLOQ”. Also, the “In vivo degradability (ng tissue)” value in data set [1] is on record as “BLOQ”. In addition, the “In vivo degradability (ng/tissue) at 48 h 0.1 mpk” value in data set [1] is “BLOQ”. In addition, the “Plasma half life % remaining after 2 h” value in “Mouse plasma stability” (Table 1, 37° C.) amounted to 15%; in the data set “Mouse plasma stability” (Table 2, 37° C.), 15%.
On to `CCCCCCCC(=O)OCC(COC(=O)CCCCCCC)OC(=O)CCCC(CCCC(=O)OC(COC(=O)CCCCCCC)COC(=O)CCCCCCC)SC(=O)CCCN(C)C` [LIPID 4, bis(1,3-bis(Octanoyloxy)propan-2-yl) 5-((4-(dimethylamino)butanoyl)thio)nonanedioate], for which the “In vivo degradability (ng/tissue) at 48 h 0.03 mpk” value is “BLOQ” in data set [1] (Table 1, 0.03 mpk) and “BLOQ” in data set [1] (Table 2, 0.03 mpk). The “In vivo degradability (ng tissue)” value in data set [1] is given as “BLOQ”. Moreover, the “In vivo degradability (ng/tissue) at 48 h 0.1 mpk” value in data set [1] was “BLOQ”. The “Plasma half life % remaining after 2 h” value in “Mouse plasma stability” (Table 1, 37° C.) turned out to be 13%; in “Mouse plasma stability” (Table 2, 37° C.), 13%.
Take `CCCCCCCCC(=O)OCC(COC(=O)CCCCCCCC)OC(=O)CCC(CCC(=O)OC(COC(=O)CCCCCCCC)COC(=O)CCCCCCCC)OC(=O)CCCN(C)C` [LIPID 5, bis(1,3-bis(Nonanoyloxy)propan-2-yl) 4-((4-(dimethylamino)butanoyl)oxy)heptanedioate]: the “In vivo degradability (ng/tissue) at 48 h 0.03 mpk” value in data set [1] (Table 1, 0.03 mpk) is “BLOQ”; in data set [1] (Table 2, 0.03 mpk), “BLOQ”. The “In vivo degradability (ng tissue)” value in data set [1] is listed as “BLOQ”. Also, in data set [1], the “In vivo degradability (ng/tissue) at 48 h 0.1 mpk” value was “BLOQ”. Moreover, the “Plasma half life % remaining after 2 h” value in “Mouse plasma stability” (Table 1, 37° C.) is recorded as 40%; in the data set “Mouse plasma stability” (Table 2, 37° C.), 40%.
With `CCCCCCCCC(=O)OCC(COC(=O)CCCCCCCC)OC(=O)CN(CC(=O)OC(COC(=O)CCCCCCCC)COC(=O)CCCCCCCC)C(=O)SCCCN(C)C` [LIPID 8, ((2,2′-((((3-(Dimethylamino)propyl)thio)carbonyl)azanediyl)bis(acetyl))bis(oxy))bis(propane-2,1,3-triyl) tetranonanoate], the “In vivo degradability (ng/tissue) at 48 h 0.03 mpk” value in data set [1] (Table 1, 0.03 mpk) is “BLOQ”; in data set [1] (Table 2, 0.03 mpk), “BLOQ”. Further, the “In vivo degradability (ng tissue)” value in data set [1] is “BLOQ”. Besides, in data set [1], the “In vivo degradability (ng/tissue) at 48 h 0.1 mpk” value is reported as “BLOQ”. The “Plasma half life % remaining after 2 h” value came to 81% in “Mouse plasma stability” (Table 1, 37° C.) and 81% in the data set “Mouse plasma stability” (Table 2, 37° C.).
For the compound `CN(C)CCCSC(=O)N(CCCC(=O)OC(COC(=O)CCC1CCCCC1)COC(=O)CCC1CCCCC1)CCCC(=O)OC(COC(=O)CCC1CCCCC1)COC(=O)CCC1CCCCC1` [LIPID 10, ((4,4′-((((3-(Dimethylamino)propyl)thio)carbonyl)azanediyl)bis(butanoyl))bis(oxy))bis(propane-2,1,3-triyl) tetrakis(3-cyclohexylpropanoate)], the “In vivo degradability (ng/tissue) at 48 h 0.03 mpk” value in data set [1] (Table 1, 0.03 mpk) is “BLOQ”; in data set [1] (Table 2, 0.03 mpk), “BLOQ”. In data set [1], the “In vivo degradability (ng tissue)” value was “BLOQ”. For the same compound, the “In vivo degradability (ng/tissue) at 48 h 0.1 mpk” value in data set [1] is listed as “BLOQ”. Besides, the “Plasma half life % remaining after 2 h” value in the data set “Mouse plasma stability” (Table 1, 37° C.) was 36%; in “Mouse plasma stability” (Table 2, 37° C.), 36%.
For the compound `CN(C)CCCSC(=O)N(CCCC(=O)OC(COC(=O)CCCC1CCCCC1)COC(=O)CCCC1CCCCC1)CCCC(=O)OC(COC(=O)CCCC1CCCCC1)COC(=O)CCCC1CCCCC1` [LIPID 11, ((4,4′-((((3-(Dimethylamino)propyl)thio)carbonyl)azanediyl)bis(butanoyl))bis(oxy))bis(propane-2,1,3-triyl) tetrakis(4-cyclohexylbutanoate)], the “In vivo degradability (ng/tissue) at 48 h 0.03 mpk” value in data set [1] (Table 1, 0.03 mpk) is recorded as “BLOQ”; in data set [1] (Table 2, 0.03 mpk) it was “BLOQ”. Besides, the “In vivo degradability (ng tissue)” value in data set [1] is recorded as “BLOQ”. Moreover, the “In vivo degradability (ng/tissue) at 48 h 0.1 mpk” value in data set [1] is “BLOQ”. The “Plasma half life % remaining after 2 h” value in “Mouse plasma stability” (Table 1, 37° C.) is recorded as 40%; in “Mouse plasma stability” (Table 2, 37° C.), 40%.
Consider `CN(C)CCCSC(=O)N(CCCCCC(=O)OC(COC(=O)CCC1CCCCC1)COC(=O)CCC1CCCCC1)CCCCCC(=O)OC(COC(=O)CCC1CCCCC1)COC(=O)CCC1CCCCC1` [LIPID 12, ((6,6′-((((3 (dimethylamino)propyl)thio)carbonyl)azanediyl)bis(hexanoyl))bis(oxy))bis(propane-2,1,3-triyl) tetrakis(3-cyclohexylpropanoate)], for which the “In vivo degradability (ng/tissue) at 48 h 0.03 mpk” value in data set [1] (Table 1, 0.03 mpk) is “BLOQ”; in data set [1] (Table 2, 0.03 mpk), “BLOQ”. Moreover, the “In vivo degradability (ng tissue)” value in data set [1] is reported as “BLOQ”. Besides, in data set [1], the “In vivo degradability (ng/tissue) at 48 h 0.1 mpk” value is listed as “BLOQ”. Further, the “Plasma half life % remaining after 2 h” value is on record as 57% in the data set “Mouse plasma stability” (Table 1, 37° C.) and 57% in the data set “Mouse plasma stability” (Table 2, 37° C.).
With `CCCCCCCCC(=O)OCC(COC(=O)CCCCCCCC)OC(=O)CCN(CCC(=O)OC(COC(=O)CCCCCCCC)COC(=O)CCCCCCCC)C(=O)SCCCN(C)C` [LIPID 13], the “In vivo degradability (ng/tissue) at 48 h 0.03 mpk” value in data set [1] (Table 1, 0.03 mpk) is below 340 ng/tissue; in data set [1] (Table 2, 0.03 mpk), below 340 ng/tissue. Further, the “In vivo degradability (ng tissue)” value in data set [1] is recorded as below 340 ng tissue. For the same compound, the “In vivo degradability (ng/tissue) at 48 h 0.1 mpk” value in data set [1] is recorded as below 340 ng/tissue. The “Plasma half life % remaining after 2 h” value is on record as 74% in the data set “Mouse plasma stability” (Table 1, 37° C.) and 74% in “Mouse plasma stability” (Table 2, 37° C.).
For `CCCCCCCCC(=O)OCC(COC(=O)CCCCCCCC)COC(=O)CCN(CCC(=O)OCC(COC(=O)CCCCCCCC)COC(=O)CCCCCCCC)C(=O)SCCCN(C)C` [LIPID 14], the “In vivo degradability (ng/tissue) at 48 h 0.03 mpk” value is listed as below 340 ng/tissue in data set [1] (Table 1, 0.03 mpk) and below 340 ng/tissue in data set [1] (Table 2, 0.03 mpk). Also, the “In vivo degradability (ng tissue)” value in data set [1] is below 340 ng tissue. Besides, in data set [1], the “In vivo degradability (ng/tissue) at 48 h 0.1 mpk” value is listed as below 340 ng/tissue. The “Plasma half life % remaining after 2 h” value in “Mouse plasma stability” (Table 1, 37° C.) is recorded as 116%; in “Mouse plasma stability” (Table 2, 37° C.) it was 100%.
Regarding `CC1CCC(CC(=O)OCC(COC(=O)CC2CCC(C)CC2)OC(=O)CCCN(CCCC(=O)OC(COC(=O)CC2CCC(C)CC2)COC(=O)CC2CCC(C)CC2)C(=O)SCCCN(C)C)CC1` (stereo not drawn) [LIPID 15, ((4,4′-((((3-(dimethylamino)propyl)thio)carbonyl)-azanediyl)bis(butanoyl))bis(oxy))bis(propane-2,1,3-triyl) tetrakis(2-(4-methylcyclohexyl)acetate)], the “In vivo degradability (ng/tissue) at 48 h 0.03 mpk” value in data set [1] (Table 1, 0.03 mpk) was below 340 ng/tissue; in data set [1] (Table 2, 0.03 mpk), below 340 ng/tissue. The “In vivo degradability (ng tissue)” value in data set [1] is given as below 340 ng tissue. In addition, the “In vivo degradability (ng/tissue) at 48 h 0.1 mpk” value in data set [1] is recorded as below 340 ng/tissue. Also, the “Plasma half life % remaining after 2 h” value was 256% in the data set “Mouse plasma stability” (Table 1, 37° C.) and 100% in the data set “Mouse plasma stability” (Table 2, 37° C.).
With `CCCCCCC(C)C(=O)OCC(COC(=O)C(C)CCCCCC)OC(=O)CCCN(CCCC(=O)OC(COC(=O)C(C)CCCCCC)COC(=O)C(C)CCCCCC)C(=O)SCCCN(C)C` (stereo not drawn) [LIPID 18, ((4,4′-((((3-(Dimethylamino)propyl)thio)carbonyl)-azanediyl)bis(butanoyl))bis(oxy))bis(propane-2,1,3-triyl) tetrakis(2-methyloctanoate)], the “In vivo degradability (ng/tissue) at 48 h 0.03 mpk” value is listed as below 340 ng/tissue in data set [1] (Table 1, 0.03 mpk) and below 340 ng/tissue in data set [1] (Table 2, 0.03 mpk). Besides, the “In vivo degradability (ng tissue)” value in data set [1] is given as 639 ng tissue. Further, the “In vivo degradability (ng/tissue) at 48 h 0.1 mpk” value in data set [1] is on record as 639 ng/tissue. In addition, the “Plasma half life % remaining after 2 h” value in “Mouse plasma stability” (Table 1, 37° C.) is reported as 100%; in “Mouse plasma stability” (Table 2, 37° C.), 100%.
